According to patent publication US20100266541A1, “METHODS AND AGENTS FOR […] IMMUNE RESPONSE” (priority 2006, published 2010):
Square brackets hold non-standard residues; d marks the D form. Peptide text beside a SMILES is read from it. * marks the point of attachment. Sta = CC(C)C[C@H](N)[C@@H](O)CC(=O)O; Isovaleryl = CC(C)CC(=O)*

Legend:
LC3-II = LC3-II accumulation by anti-LC3 Western blotting; type: cell-based, human; conditions: for LC3-II accumulation (Western blot, words): 10 hours; for LC3-II accumulation, density quantification of Western blots: 10 hours of CQ-treatment; for effect on LC3-II levels and hence macroautophagy: 293T, HaCat and MDAMC, 24 h, 1000 U/ml
Description: Cells were lysed in ice cold lysis buffer (50 mM Tris-HCl pH 8.0, 140 mM NaCl, 1 mM DTT, 1.5 mM MgCl2, 0.5% NP-40 with Complete protease inhibitor cocktail, Roche, Indianapolis, Ind.) for 5 mim on ice (about 10^6 cells/100 μl). Whole cells and cell debris were pelleted by low speed centrifugation (400 g, 3 mil) and cleared supernatants were transferred to a new tube. Protein concentration was determined by BCA protein assay (Pierce, Rockford, Ill.). […] Primary antibodies were visualized with HRP-conjugated goat anti-rabbit IgG (Biorad, Hercules; CA) and the ECLplus detection system (Amersham Biosciences, UK).
This also allowed for extension of the analysis from epithelial cell lines to MHC class II-positive cell types that are more difficult to transfect, such as B cell lines and primary monocytes/dendritic cells. The fact that autophagosome-associated LC3 (called LC3-II) and free cytosolic LC3 (called LC3-I) can be distinguished by their apparent molecular weights in SDS-PAGE gel electrophoresis (16 and 18 lcD, respectively) was used, since it can be quantified separately in anti-LC3 Western blots.

atg12 = assay: Knockdown of atg12 by siRNA in MDAMC cells; type: cell-based, human
From the text: The following 21-nt siRNA oligos were used:
Atg12 antisense: 5′-[…]dT (SEQ ID NO:6; nt. 687-705 of NM_004707). As a control, lamin A/Cspecific siRNA from Dharmacon (Lamin sense: 5′-CUGGACUUCCAGAAGAACAdTdT (SEQ ID NO:7); Lamin antisense: 5′-UGUUCUUCUGGAAGUCCAGdTdT (SEQ ID NO:8) or firefly luciferase-specific siRNA (GL2 sense: 50-CGUACGCGGAAUACUUCGAdTdT; SEQ ID NO:9; GL2 antisense: 5′-UCGAAGUAUUCCGCGUACGdTdT; SEQ ID NO:10) was used. siRNA duplexes were delivered by transfection with lipofectamine 2000 (Invitrogen) at 30 pmol siRNA+[…] lipofectamine/well in a 24-well format, and effect of knockdown was analyzed after 2-3 days.

[1] = tested on: MDAMC cells stably transfected with GFP-LC3; conditions: CQ-treated versus untreated cells
Description: MDAMC cells stably transfected with GFP-LC3 were fixed for 1 h at RT with 4% paraformaldehyde (PFA, Electron Microscopy Sciences) in 0.25 M Hepes, pH 7.4, followed by overnight fixation at 4° C. in 8% PFA/Hepes. Cells were washed 1× in PBS, quenched with 0.1 M NH4Cl in PBS for 10 min, scraped into 1% gelatin in PBS and then embedded in 5% gelatin in PBS. Small pieces of the gelatin pellets were infiltrated overnight at 4° C. with 2.3 M sucrose in PBS, mounted onto cryospecimen pins and frozen in liquid nitrogen. […] After quenching with 0.1 M NH4Cl in PBS for 10 min, the grids were incubated for 20 min in a solution of 1% fish skin gelatin (FSG, Sigma-Aldrich) in PBS. They were then labeled with rabbit anti-HLA-DR antiserum C6861 (a gift from Peter Cresswell, Yale University, New Haven, Conn.) in PBS-FSH for 30 min at RT, washed 4× in PBS and then incubated with 10 or 15 nm protein A-gold (purchased from the Department of Cell Biology, University of Utrecht, Netherlands). After 4 more washes in PBS, grids were fixed in 1% glutaraldehyde in PBS for 5 min at RT, washed 5× in PBS and again quenched with 0.1 M NH4Cl in PBS for 10 min. The same labeling procedure was repeated with a rabbit anti-GFP antibody (Invitrogen-Molecular Probes, Carlsbad, Calif.) and after final fixation in 1% glutaraldehyde, grids were washed 8× in HPLC-grade water.

immature DCs = conditions: 10 hr of CQ treatment
MDAMC cells = assay: Colocalization of GFP-LC3 with compartment markers by confocal microscopy in MDAMC cells; type: cell-based, human
[2] = tested on: GFP-LC3 labeled autophagosomes; type: cell-based, human; design: accumulation of GFP-LC3-labeled autophagosomes: dose or concentration left out as unconfirmed
[3] = MDAMC cells, CQ 50 μM, E64 28 μM, Leupeptin 40 μM and Pepstatin A 15 μM together

Compound: CC(C)CC(=O)N[C@H](C(=O)N[C@H](C(=O)N[C@@H](CC(C)C)[C@@H](O)CC(=O)N[C@@H](C)C(=O)N[C@@H](CC(C)C)[C@@H](O)CC(=O)O)C(C)C)C(C)C [Pepstatin A] (Isovaleryl-VV[Sta]A[Sta]-OH)
- LC3-II accumulation (Western blot, words) (LC3-II; [3]): strong accumulation of LC3-II

Compound: CC(=O)N[C@@H](CC(C)C)C(=O)N[C@@H](CC(C)C)C(=O)N[C@H](C=O)CCCNC(=N)N [Leupeptin]
- LC3-II accumulation (Western blot, words) (LC3-II; [3]): strong accumulation of LC3-II

Compound: ATG12 siRNA: 21-nt siRNA duplex against atg12, SEQ ID NO: 5 and 6 (nt. 687-705 of NM_004707) (chain 1 UCAACUUGCUACUACAUGAUDT; chain 2 UCAUGUAGUAGCAAGUUGAUDT; chemistry not fully specified; listed as Homo sapiens)
- accumulation of GFP-LC3+ vesicles upon CQ treatment after knockdown (atg12; MDAMC cells stably expressing GFP-LC3, 2 days after transfection, CQ 6 hr): completely abrogates accumulation of these vesicles
- colocalization of MP1-LC3-containing vesicles with MHC class II compartments after knockdown (atg12; MDAMC cells stably expressing MP1-LC3, IFNγ 200 U/ml, 50 μM chloroquine last 6 hours): completely abrogated

Compound: CCN(CC)CCCC(C)Nc1ccnc2cc(Cl)ccc12 (stereo not drawn) [chloroquine]
- frequency of GFP-LC3/MHC class II double-labeled multivesicular compartments [1]: found much more frequently
- MHC class II-labeled compartments positive for GFP-LC3 (immature DCs): 41% (±7%)
- HLA-DM colocalization with GFP-LC3, LSM510 histogram tool (MDAMC cells; IFNγ-treated MDAMC, after chloroquine treatment (38 untreated)): 45%
- MHC class II colocalization with GFP-LC3, LSM510 histogram tool (MDAMC cells; IFNγ-treated MDAMC, after chloroquine treatment (40 untreated)): 44%
- HLA-DM+ vesicles colocalized with GFP-LC3, LSM 510 profile tool (MDAMC cells; IFNγ-treated MDAMC, after chloroquine treatment (52 untreated)): 71%
- MHC class II+ compartments colocalized with GFP-LC3, LSM 510 profile tool (MDAMC cells; IFNγ-treated MDAMC, after chloroquine treatment (58 untreated)): 86%
- EEA1 colocalization with GFP-LC3, histogram analysis (MDAMC cells; MDAMC, after chloroquine treatment (7% untreated)): 21%
- EEA1 colocalization with GFP-LC3, profile analysis (MDAMC cells; MDAMC, after chloroquine treatment (9% untreated)): 26%
- LC3-II accumulation, density quantification of Western blots (LC3-II; 293 cells): 30 fold
- onset of increase of cellular LC3-II levels (LC3-II; HaCat cell line, time course): already increased 1 hour after CQ-treatment
- LC3-II accumulation, density quantification of Western blots (LC3-II; HaCat cells): 5 fold
- LC3-II accumulation, density quantification of Western blots (LC3-II; MDAMC cells): 5 fold
- LC3-II accumulation (Western blot, words) (LC3-II; [3]): strong accumulation of LC3-II
- LC3-II accumulation (Western blot, words) (LC3-II; epithelial and B cell lines, CD14+ monocytes, dendritic cells): strongly accumulated
- accumulation of GFP-LC3-labeled autophagosomes ([2]; B-LCL, immature and mature DCs, chloroquine for 10 hr): strongly accumulated
- accumulation of GFP-LC3 in cytosolic vesicles ([2]; HaCat, HeLa, MDAMC, 293 cell lines, 10 hours of CQ-treatment): strongly accumulated in cytosolic vesicles

Compound: IFN-α
- effect on LC3-II levels and hence macroautophagy (LC3-II): not affected

Compound: CC(C)C[C@H](NC(=O)[C@H]1O[C@@H]1C(=O)O)C(=O)NCCCCN=C(N)N [E64]
- LC3-II accumulation (Western blot, words) (LC3-II; [3]): strong accumulation of LC3-II

Compound: IFNγ: Recombinant human IFNγ
- formation of MHC class II positive compartments (MDAMC cells; human epithelial cell lines, IFNγ treatment): induced the formation of MHC class II positive compartments
- effect on LC3-II levels and hence macroautophagy (LC3-II): not affected
